Test results taken from patent publication US11278525B1, “Further molecules, compositions and methods for modulation of SIRT6” (SirTLab Corporation, priority 2017, dated 2022).

Target: SIRT6 (Homo sapiens, UniProt Q8N6T7)
Assay: SIRT6 enzymatic activity assay with fluorophore (AMC)-labeled Lysin-myristoylated histone H3 peptide (de-myristoylation, trypsin release)
Type: biochemical
Set-up: six-histidine tag; made in house; host or cells: Escherichia coli BL21
Conditions: for % activity 20 uM: compound 20 uM; for % activity 20 uM / % activity Max. conc. 100 uM: percentage of signal increase relative to control wells, Tables 1-2; for % activity Max. conc. 100 uM: compound 100 uM; for % Activity: amount tested 20 uM, Example 5, Table 9
Method: Human recombinant SIRT6 (sequence identifier: CAG33481.1; GI:4814651) was expressed in large scale in Escherichia coli strain BL21 as a six-histidine-tagged protein, after transformation of the expression plasmid pET28-SIRT6. The SIRT6 enzyme was purified from the bacteria culture broth in a two-step strategy. The first purification step was carried out by cation exchange chromatography on a HiTrap CM-Sepharose column (GE Healthcare) using an FPLC system. The second purification step was performed by immobilized metal ion affinity chromatography (IMAC) using a cobalt affinity column (Clontech).
The enzymatic activity assay is carried out in 96 or 384-well microplates using the purified recombinant SIRT6 and a fluorophore-labeled peptide substrate: 7-amino-4-methylcoumarin (AMC) that is quenched through conjugation to the C-terminal end of a Lysin-myristoylated histone H3 peptide. The activity assay procedure requires two steps, both performed in the same microplate. In the first step, the substrate is incubated with the purified SIRT6 protein along with the co-substrate nicotinamide adenine dinucleotide (NAD+). Upon de-myristoylation, the liberated ε-amino group of the lysine becomes a trypsin substrate. Treatment with trypsin in the second step releases the fluorophore resulting in an increase in fluorescence. Fluorescence intensity is measured using a fluorescent plate reader (excitation and emission at 370 nm and 450 nm, respectively). The fluorescence signal is directly proportional to SIRT6 enzymatic activity.
In the primary screening, compounds from a library (ChemDiv Inc.) were tested at a single concentration of 20 micromolar for their potential to modulate SIRT6 enzymatic activity. The assay was carried out in 384-well black well plates and all liquid handling was done using a robotic liquid handler. Purified recombinant SIRT6 (1 micromolar) was pre-incubated with each compound (or DMSO in control wells) for 15 minutes at room temperature. The first stage of the assay was initiated by adding a ‘substrate solution’ containing the myristoylated histone H3 peptide and NAD+(for final concentrations of 25 micromolar and 20 micromolar, respectively). After one hour incubation at 37° C., a Trypsin solution (6 mg/mL) was added for 30 minutes at room temperature. Fluorescence intensity was measured using a fluorescent plate reader (Tecan) with excitation at 370 nm and emission at 450 nm. The effect of each tested compound was evaluated by the change in the fluorescence intensity compared to control wells. […] To validate the primary screening results, each of the primary “hits” was re-tested, first at concentration of 20 micromolar in duplicates and later at a serial dilution ranging from 100 to 0.2 micromolar in triplicates.
Results of Assay—The results of the assay are given below in Tables 1-3.
Additional molecules were tested according to the methods and materials of Example 1. The amount tested was 20 uM for each molecule.

Sequence of SIRT6 (Q8N6T7 whole entry): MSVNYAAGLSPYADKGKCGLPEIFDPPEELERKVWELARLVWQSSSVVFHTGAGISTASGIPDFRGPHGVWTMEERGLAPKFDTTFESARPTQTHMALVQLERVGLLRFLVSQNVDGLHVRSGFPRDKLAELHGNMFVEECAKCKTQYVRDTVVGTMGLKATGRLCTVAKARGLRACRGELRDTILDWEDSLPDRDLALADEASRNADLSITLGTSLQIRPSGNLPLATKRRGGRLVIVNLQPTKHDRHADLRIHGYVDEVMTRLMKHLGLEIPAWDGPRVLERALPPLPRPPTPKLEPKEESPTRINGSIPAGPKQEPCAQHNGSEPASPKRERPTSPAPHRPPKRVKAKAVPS

Compound | % activity 20 uM [%] | % activity Max. conc. 100 uM [%] | % Activity [%]
C=C(Cn1c(C)cc(C)c(C2=NC(c3ccccc3)=NC2)c1=O)NC1CCCCC1 [G744-0080] | 53 | 221 | 
C=C(Nc1cc(C)cc(C)c1)Nc1nnc(SCC2=CC(=C)N3C=C(C)C=CC3=N2)s1 [G755-0539] | 34 | 87 | 
Cc1cc(C)c2sc(N(Cc3cccnc3)C(=O)CCS(=O)(=O)c3ccccc3)nc2c1 [G856-7064] |  |  | 61
C=C(Oc1ccc2cnccc2c1)c1sc2ccccc2c1N [G891-0058] | 154 | 324 | 
C=C1Cc2c(cccc2CC)C=C1c1csc(NC(=O)CCC(=O)NCCCN2CCC(C)CC2)n1 [K232-1782] | 42 | 35 | 
CCOC(=O)C1CCCN(S(=O)(=O)c2ccc(-c3ccc(N4CCOCC4)nn3)s2)C1 (stereo not shown) [K906-5001] | 52 | 52 | 
CCOc1ccc(NC(=O)c2sc3nc(C)nc(N(C)c4ccc(C(C)C)cc4)c3c2C)cc1 [K937-0320] | 32 | 54 | 
CCC(=O)Nc1ccc(-c2cc(C(=O)NCCCN3CCCCCC3)c3ccccc3n2)cc1 [L036-0162] | 62 | 92 | 
CCC(=O)Nc1ccc(-c2cc(C(=O)NCCCN3CCCCC3C)c3ccccc3n2)cc1 (stereo not shown) [L036-0163] |  | 110 | 
CCC(=O)Nc1ccc(-c2cc(C(=O)NCCCN3CCCC(C)C3)c3ccccc3n2)cc1 (stereo not shown) [L036-0174] | 61 | 87 | 
CC(=O)Nc1ccc(-c2cc(C(=O)NCCN3CCN(C)CC3)c3cc(C)ccc3n2)cc1 [L036-2289] | 96 | 119 | 
CCCNc1nc2ccccc2nc1S(=O)(=O)Cc1ccc(Cl)cc1 [L103-0652] | 34 | 42 | 
CCOCCCNc1nc2ccccc2nc1S(=O)(=O)Cc1ccc(Cl)cc1 [L103-0696] | 91 | 159 | 
CC(C)Cn1c(=O)c(-c2ccc(C(=O)N3CCN(c4ccccc4)CC3)cc2)nc2ccccc21 [M049-1557] | 51 | 56 | 
CCCNC(=O)c1ccc(-c2ccc(N3CCCCC3)nc2)cc1 [M715-0111] | 63 | 50 | 
CN(C)C(=O)c1ccc(-c2ccc(N3CCCCC3)nc2)cc1 [M715-0112] | 40 | 54 | 

Compound | % activity 20 uM [%] | % activity Max. conc. 100 uM [%] | % Activity [%]
O=C(c1ccc(-c2ccc(N3CCCCC3)nc2)cc1)N1CCCC1 [M715-0156] |  | 75 | 
O=C(Nc1ccc2nncn2c1)c1cccc(Cl)c1 [M723-0069] |  | 51 | 
CC(C)(C)c1ccc(C(=O)Nc2ccc3nnc(C4CCC4)n3c2)cc1 [M723-1403] |  | 87 | 
O=C(Nc1ccc2nnc(C3CCC3)n2c1)C1CC1 [M723-1459] |  | 142 | 
Cc1nc(Cc2ccc(F)cc2)sc1C(=O)Nc1ccc(F)cc1F [M830-6517] | 36 | 22 | 
Cc1ccc(Nc2nc(C)c(C(=O)Nc3cccc(C(C)C)c3)s2)cc1 [M830-6572] |  | 11 | 
Cc1ccccc1C1N=C2C=NC=CN2C1NCCC(=O)NCc1cccs1 (stereo not shown) [P349-2111] |  |  | 84
COc1cc(NC(=O)c2csc(-c3cn(C)c4ncccc34)n2)cc(OC)c1 [P613-0273] |  | 37 | 
CCCC1(CO)CCCN1C(=O)c1ccc2cc[nH]c2c1 (stereo not shown) [P933-1294] |  | 53 | 
N#Cc1cccc(-c2cn3c(n2)N(C(=O)c2ccncc2)CCC3)c1 [P950-0537] |  | 45 | 
Cc1noc(-c2cccc(OC3CN(C(=O)c4cccc5[nH]ccc45)C3)c2)n1 [S051-0094] |  | 47 | 
CCNC(=O)N1CCc2c(sc3ncnc(NCC)c23)C1 [S324-0342] |  |  | 30
CNC(=O)N1CCc2c(sc3ncnc(NCCCOC)c23)C1 [S324-0365] |  |  | 60
Cc1nc(-c2cccc(C(F)(F)F)c2)c(N)c(N(C)C2CCN(C)CC2)n1 [V030-4109] |  | 255 | 
Cc1nc(-c2cccc(F)c2)c(N)c(N(C)C2CCN(C)CC2)n1 [V030-4128] |  | 210 | 

Continued, values first:

% activity 20 uM [%] | % activity Max. conc. 100 uM [%] | % Activity [%] | Compound
 |  | 67 | CN1CCN(C(=O)C2CCN(c3nc4ccc(-c5ccccc5)nc4s3)CC2)CC1 [T387-0661]
 |  | 51 | CN(C)CCCNC(=O)C1CCN(c2nc3ccc(-c4ccccc4)nc3s2)CC1 [T387-0668]
 |  | 69 | CCN1CCN(C(=O)C2CCN(c3nc4ccc(-c5ccccc5)nc4s3)CC2)CC1 [T387-0670]
 |  | 22 | CN1CCC(NC(=O)C2CCN(c3nc4ccc(-c5ccccc5)nc4s3)CC2)CC1 [T387-0726]
 |  | 65 | COCCCNC(=O)C1CCN(c2nc3ccc(-c4cncnc4)nc3s2)CC1 [T387-0917]
 |  | 49 | CN(C)CCNC(=O)C1CCN(c2nc3ccc(-c4cncnc4)nc3s2)CC1 [T387-0941]
 |  | 40 | O=C(C1CCN(c2nc3ccc(-c4cncnc4)nc3s2)CC1)N1CCCC1 [T387-0947]
 |  | 80 | CN(C)C(=O)C1CCN(c2nc3ccc(-c4cncnc4)nc3s2)CC1 [T387-0950]
 |  | 31 | CN(C)CCNC(=O)C1CCN(c2nc3ccc(-c4cccnc4)nc3s2)CC1 [T387-1019]
 |  | 47 | CC1CCN(C(=O)C2CCN(c3nc4ccc(-c5ccncc5)nc4s3)CC2)CC1 [T387-1113]
 |  | 85 | CCN(CC)C(=O)C1CCN(C2=Nc3ccc(-c4ccncc4)nc3C2)CC1 [T387-1131]
 | 175 |  | C=C(C)C1Cc2cc(C(F)(F)F)ccc2N2CCCCC12 (stereo not shown) [V004-5575]
 |  | 529 | CCOC(=O)CCc1c(C)c2ccc(OC(=O)C3CCCCC3)c(C)c2oc1=O [Y04-4165]
 |  | 71 | Cc1c(OC(=O)C2CCCCC2)ccc2c3c(c(=O)oc12)CCCC3 [Y040-0748]
 |  | 33 | COc1cccc(C(=O)Oc2ccc3c4c(c(=O)oc3c2C)CCCC4)c1 [Y040-0750]
 |  | 237 | Cc1c(C)c2ccc(OC(=O)C3CCCCC3)c(C)c2oc1=O [Y040-1862]
 |  | 30 | Cc1c(Cc2ccccc2)c(=O)oc2c(C)c(OC(=O)C3CC3)ccc12 [Y040-1980]

% activity 20 uM [%] | % activity Max. conc. 100 uM [%] | % Activity [%] | Compound
 |  | 140 | COc1ccc(C(=O)Oc2ccc3c(C)c(Cc4ccccc4)c(=O)oc3c2)cc1 [Y040-2026]
 |  | 95 | COc1cc(C(=O)Oc2ccc3c4c(c(=O)oc3c2)CCCC4)cc(OC)c1OC [Y040-2478]
 |  | 396 | COC(=O)Cc1c(C)c2ccc(OC(=O)c3cccc(OC)c3)c(C)c2oc1=O [Y040-3572]
 |  | 50 | CCOc1ccccc1C(=O)Oc1ccc2c(C)c(CC(=O)OC)c(=O)oc2c1C [Y040-3573]
 | 113 |  | C=C1Cc2cc(C)cc(CC(=O)[C@@H](NS(=C)(=C)c3ccc(C)cc3)[C@H](C)CC)c2C2=C1CCC2 [Y040-3625]
 |  | 168 | CCOc1ccccc1C(=O)Oc1ccc2c3c(c(=O)oc2c1)CCCC3 [Y040-4190]
 |  | 53 | Cc1ccc(C(=O)Oc2ccc3c4c(c(=O)oc3c2C)CCC4)cc1 [Y040-4193]
 |  | 33 | CCCCCCc1c(C)c2ccc(OC(C)=O)c(C)c2oc1=O [Y040-4544]
 |  | 63 | CCCCCCc1c(C)c2cc(C)c(OC(=O)c3cccc(OC)c3)cc2oc1=O [Y040-7591]
 |  | 145 | Cc1c(Cc2ccccc2)c(=O)oc2c(C)c(OC(=O)C3CCCCC3)ccc12 [Y040-7709]
 |  | 41 | Cc1c(Cc2ccccc2)c(=O)oc2c(C)c(OC(=O)c3ccccc3)ccc12 [Y040-7711]
 |  | 21 | COc1ccc(C(=O)Oc2ccc3c(C)c(Cc4ccccc4)c(=O)oc3c2C)cc1 [Y040-7713]
 |  | 21 | Cc1c(Cc2ccccc2)c(=O)oc2cc(OCc3c(Cl)cccc3Cl)ccc12 [Y040-7747]
 |  | 212 | Cc1c(Cc2ccccc2)c(=O)oc2cc(OC(=O)c3ccccc3)ccc12 [Y040-7755]
 |  | 61 | Cc1c(Cc2ccccc2)c(=O)oc2cc(OC(=O)C3CCCCC3)ccc12 [Y040-7756]
 |  | 485 | COc1ccc(C(=O)Oc2ccc3c4c(c(=O)oc3c2)CCCC4)cc1 [Y040-8182]
